Measured values published in article PMC9781117, “New 5-Aryl-1,3,4-Thiadiazole-Based Anticancer Agents: Design, Synthesis, In Vitro Biological Evaluation and In Vivo Radioactive Tracing Studies” (Pharmaceuticals, 2022).
Values after ≈ are worked out from the molar mass of the structure shown.

What was measured:
[1] = test system: MCF-7 breast adenocarcinoma cells; assay: MTT cytotoxicity assay, MCF-7; format: cell-based, human
Experimental: (§1) The in vitro cytotoxicity of the synthesized 1,3,4-thiadiazole derivatives against breast adenocarcinoma cells (MCF-7) and human hepatocellular carcinoma (HepG2) cell lines were evaluated by the MTT assay, using 5-Fluorouracil (5-FU) as a positive control.
(§2) Human hepatocellular carcinoma (HepG2) cells and breast adenocarcinoma (MCF7) cells were purchased from the American Type Culture Collection (ATCC, USA). Under 37 °C with 5% CO2 in a humid incubator, cells were propagated using RPMI supplemented with 10% fetal bovine serum (FBS) and 1% v/v penicillin-streptomycin.
(§3) According to Tim Mosmann’s approach, an MTT assay was performed to assess the antiproliferative properties of the compounds. In short, HepG2 or MCF7 cells (0.5 × 105) were grown in flat-bottom 96-well microplates in 180 μL/well RPMI media supplemented with 10% fetal bovine serum, 2μmol/mL L-glutamine, 250 ng/mL fungizone, and 100 units/mL penicillin-streptomycin solutions at 37 °C in a CO2 incubator. Following incubation, 180 μL/well of the new serum-free medium was added to each well after the old media had been withdrawn. After that, cells were exposed to 20 μL of various concentrations of the compounds (50–0.75 μg/mL) and were incubated for 48 h at 37 °C in a humidified 5% CO2 environment. The MTT solution (20 µL/well) was added and incubated for a further 4 h. The plate was agitated at room temperature while acidified isopropanol (160 μL/well) was added to dissolve the formazan crystals. The absorbance at 570 nm was then determined photometrically using the microplate ELISA reader (FLUOstar Omega, BMG, Labtech, Germany). Graph-Pad PRISM version 6 was used to determine the IC50 for each compound.

[2] = test system: HepG2 human hepatocellular carcinoma cells; assay: MTT cytotoxicity assay, HepG2; format: cell-based
Experimental: as §1, §2, §3

[3] = test system: normal mammalian Vero cells; assay: Cytotoxicity against normal Vero cells; format: cell-based; details: Chlorocebus sabaeus
MCF-7 cells [4] = assay: AO/EB fluorescent stain, apoptotic and necrotic cells, MCF-7; format: cell-based, human; details: MCF-7, IC50 concentration, 48 h, vs untreated control cells
Experimental: Morphologically, there are three different modes of cell death: apoptosis, autophagy, and necrosis (types I, II, and III, respectively).
Fluorescence labeling with acridine orange/ethidium bromide (AO/EB) was used to determine the ratio between apoptosis and necrosis to evaluate the mode of cell death. HepG2 and MCF-7 cells were seeded in six-well plates with DMEM media supplemented with 10% FBS and allowed to settle overnight at 37 °C with 5% CO2 in a humidified incubator. […] 5-FU was used as a positive standard for both cell lines. After incubation, cells were collected by trypsinization and stained using a dye solution of AO and EB in PBS (1:1) for 20 min. The cells were examined using fluorescence microscopy. Each sample had at least 500 counted cells, and the percentage of apoptotic or necrotic cells was determined by […] the number of apoptotic or necrotic cells by the total number of cells counted by 100. The experiment was performed three times in triplicate.

MCF-7 cells [5] = assay: Annexin V-FITC/PI flow cytometric apoptosis analysis, MCF-7; format: cell-based, human; details: MCF-7, IC50 concentration, 48 h
Description: Propidium iodide (PI) and annexin-V-FITC were used in a flow cytometric investigation on HepG2 and MCF-7 cells to better understand the manner of cell death caused by 4e and 4i, respectively. […] Apoptosis evasion is one of the hallmarks of cancer progression because the loss of apoptosis control prolongs cancer cell survival and allows for the accumulation of mutations that can promote angiogenesis and cell proliferation, disrupt differentiation, and increase invasiveness throughout tumor progression, thus one of the key purposes of apoptosis is to prevent cancer.
The apoptotic activity of compounds 4e and 4i was measured using the annexin V fluorescein isothiocyanate (FITC)/propidium iodide (PI) apoptosis detection kit (BioVision, USA, Catalog #: K101-25) following the manufacturer’s instructions. […] Cells were collected by trypsinization, washed twice using PBS and then 1 × 10^5 cells were resuspended in PBS and stained for 15 min at room temperature in the dark with 5 µL Annexin V-FITC and 5 µL PI in 1x binding buffer. Annexin V-FITC binding was analyzed by a BD FACS Calibur flow cytometry (Ex = 488 nm; Em = 530 nm) using a FITC signal detector (FL1) and PI staining by the phycoerythrin emission signal detector (FL2).

MCF-7 cells [6] = assay: Cell cycle analysis by flow cytometry (PI), MCF-7; format: cell-based, human; details: MCF-7, IC50 concentration, 48 h, vs control, p < 0.05
Experimental: The cell cycle is made up of several intricately linked processes that enable the cell to develop and multiply. In cancer, the genetic and epigenetic abnormalities in the cell cycle-related genes result in an unchecked proliferation of mutated cells and alteration of cell cycle progression. For further investigation of the inhibitory effects of 4e and 4i compounds on the proliferation of HepG2 and MCF-7 cells, respectively, we examined the cell cycle distribution and DNA content after 48 h of the treatment. […] Consequently, the arrest in the G2/M phase mediates apoptosis via a mitochondrial apoptotic pathway.
Immediately after incubation, trypsinization was used to collect the cells, which were then washed twice with ice-cold PBS before being fixed in 70% (v/v) ethanol at […], re-suspended with 0.1 mg/mL RNase, stained with […] propidium iodide (PI), and incubated for 1 h. The DNA contents of the cells were then analyzed by flow cytometry using an FL2 (λex/em 493/636 nm) signal detector (Abcam, UK, ab139418).

[7] = test system: Bax/Bcl-2 ratio in MCF-7 cells; assay: ELISA Bax/Bcl-2 ratio, MCF-7; format: cell-based, human; details: MCF-7, IC50, 48 h, compared to control and 5-FU treated cells
Description: (§4) The overexpression of antiapoptotic proteins, such as Bcl-2, and the underexpression of proapoptotic proteins, such as Bax, are two common ways that the apoptotic pathway is suppressed in cancer. […] Therefore, a rise in Bax expression and a decrease in Bcl-2 can trigger the apoptotic process and eradicate cancer cells. […] This in turn activates the intrinsic pathway of apoptosis; thus, we next examined their effect on caspase 9 levels. Caspases (cysteine aspartyl-specific proteases), a class of cysteine proteins that cleave target proteins, play a role in executing apoptosis. […] Moreover, we evaluated the effect of the two compounds on the vascular endothelial growth factor VEGF expression. VEGF is one of the pro-angiogenic proteins; upon binding to VEGF receptors in the endothelial cells, it activates phosphorylation, causing increased angiogenesis and resulting in abnormal vasculature in the tumor tissue.
(§5) The protein levels of Bax, Bcl2, caspase 9, and VGEF were estimated using an ELISA assay. […] Cells from each group were scraped off and washed with PBS and then cell pellets were collected from each flask. […] The supernatants were then used for ELISA assays in accordance with the manufacturer’s instructions for the ELISA kits (Sunlong Biotech, China), and absorbance and calculations were carried out using an ELISA reader (FLUOstar Omega, BMG, Labtech, Germany).

caspase 9 in MCF-7 cells = assay: ELISA caspase 9 level, MCF-7; format: cell-based, human; details: MCF-7, IC50, 48 h
Description: as §4, §5

VEGF in MCF-7 cells = assay: ELISA VEGF level, MCF-7; format: cell-based, human; details: MCF-7, IC50, 48 h, compared to control and 5-FU treated cells
Description: as §4, §5

lung A549 cancer cells = test system: lung A549 cancer cells; set-up: method as in PMID 31313595; details: cited from earlier work
[8] = test system: cervical HeLa cancer cells; set-up: method as in PMID 31313595; details: cited from earlier work
[9] = test system: breast cancer MCF-7 cells; set-up: method as in PMID 31313595; details: cited from earlier work

O=C(CN1CCC(Cc2ccccc2)CC1)Nc1nnc(-c2ccc(Cl)cc2)s1 [Compound 4i, 2-(4-Benzylpiperidin-1-yl)-N-(5-(4-Chlorophenyl)-1,3,4-Thiadiazol-2-yl)Acetamide]
IC50 ([1]; Homo sapiens, MCF7, MTT, 48 h, means ± SD of three independent experiments): 2.32 ± 0.21 µg/mL (≈ 5.43 µM)
SI Values MCF-7 ([1]; selectivity index, MCF-7 over normal Vero cells): 36.70
IC50 ([2]; Homo sapiens, HepG2, MTT, 48 h, means ± SD of three independent experiments): 6.51 ± 0.03 µg/mL (≈ 15.2 µM)
SI Values HepG2 ([2]; selectivity index, HepG2 over normal Vero cells): 13.10
IC50 [3]: 85.29 ± 0.52 µg/mL (≈ 200 µM)
apoptosis and necrosis (AO/EB stain) (MCF-7 cells [4]): significantly enhanced apoptosis and necrosis
main mode of cell death (annexin-V/PI) (MCF-7 cells [5]): apoptosis
total cell death (annexin-V/PI) (MCF-7 cells [5]; vs untreated cells): induced significant total cell death
cell cycle arrest (MCF-7 cells [6]): induced a significant cell growth arrest for MCF-7 cells at the G2/M phase
Bax/Bcl-2 ratio [7]: significant increase
caspase 9 level (caspase 9 in MCF-7 cells): significantly enhanced
VEGF level (VEGF in MCF-7 cells): significantly suppressed

CC(C)(C)c1nc(NC(=O)CN2CCN(c3ccccc3)CC2)sc1Cc1ccc(Cl)cc1 [VII]
IC50 (lung A549 cancer cells): 0.2 µM
IC50 [8]: 4.2 µM

CCN1CCN(CC(=O)Nc2nc(C(C)(C)C)c(Cc3ccc(Cl)cc3)s2)CC1 [VI]
IC50 [9]: 12.5 µM
